This is an account of results in the Kinase Knowledgebase extract (Sharma et al. 2016).

The target of this test is EGFR (UniProt P00533).

Structures are written as SMILES. Converted amounts (≈) assume the structure as drawn.

EGFR, sequence (P00533 whole entry, looked up): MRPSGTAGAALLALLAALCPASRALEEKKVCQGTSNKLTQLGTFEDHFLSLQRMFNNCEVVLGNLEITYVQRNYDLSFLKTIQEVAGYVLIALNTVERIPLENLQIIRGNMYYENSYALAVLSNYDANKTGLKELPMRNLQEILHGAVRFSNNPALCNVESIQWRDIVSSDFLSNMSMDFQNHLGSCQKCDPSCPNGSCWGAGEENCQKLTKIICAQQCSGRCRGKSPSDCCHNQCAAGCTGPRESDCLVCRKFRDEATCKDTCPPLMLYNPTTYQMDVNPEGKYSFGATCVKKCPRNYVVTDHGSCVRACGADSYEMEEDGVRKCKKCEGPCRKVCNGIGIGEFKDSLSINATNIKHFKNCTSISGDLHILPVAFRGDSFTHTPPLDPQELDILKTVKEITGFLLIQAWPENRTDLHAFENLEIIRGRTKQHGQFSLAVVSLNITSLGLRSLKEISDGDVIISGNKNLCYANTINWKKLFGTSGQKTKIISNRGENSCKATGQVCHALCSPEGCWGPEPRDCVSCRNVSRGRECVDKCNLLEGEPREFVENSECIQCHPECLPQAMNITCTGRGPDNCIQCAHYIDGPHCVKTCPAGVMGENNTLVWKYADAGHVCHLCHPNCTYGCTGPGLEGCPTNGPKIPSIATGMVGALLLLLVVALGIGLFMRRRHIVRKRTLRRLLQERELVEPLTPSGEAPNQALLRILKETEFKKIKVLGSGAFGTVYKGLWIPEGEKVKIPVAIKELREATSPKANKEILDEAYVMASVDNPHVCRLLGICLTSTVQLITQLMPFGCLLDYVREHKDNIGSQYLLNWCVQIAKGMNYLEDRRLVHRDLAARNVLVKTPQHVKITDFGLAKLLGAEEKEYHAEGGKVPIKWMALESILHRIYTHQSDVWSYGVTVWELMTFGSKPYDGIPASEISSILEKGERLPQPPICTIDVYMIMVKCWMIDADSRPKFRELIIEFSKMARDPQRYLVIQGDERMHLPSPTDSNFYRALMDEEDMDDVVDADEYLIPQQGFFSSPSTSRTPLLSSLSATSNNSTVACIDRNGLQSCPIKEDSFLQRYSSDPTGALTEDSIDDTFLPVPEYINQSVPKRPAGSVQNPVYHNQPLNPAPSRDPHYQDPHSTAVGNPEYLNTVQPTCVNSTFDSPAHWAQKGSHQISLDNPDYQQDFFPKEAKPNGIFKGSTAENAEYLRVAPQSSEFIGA

As to `COC(=O)c1ccc(-c2cc(Nc3ncnc(Nc4cccc(CC(N)=O)c4)n3)[nH]n2)cc1`, the IC50 lay within 3.5 to 4.5 µg/mL (≈ 7.87 to 10.1 µM). `O=c1[nH]c2ccccc2n1-c1ncnc(Nc2ccc3ccccc3c2)n1` came in with an IC50 greater than 4.5 µg/mL.

`COc1cc(Nc2ncnc(-c3cccnc3Nc3cccc(C#N)c3)n2)cc(OC)c1OC`: the IC50 is greater than 4.5 µg/mL. In turn, `COc1cc(Nc2ncnc(-n3c(NCc4ccc5c(c4)OCO5)nc4ccccc43)n2)cc(OC)c1OC` registered a concentration for half-maximal inhibition (IC50) greater than 4.5 µg/mL.

With `COc1cc(Nc2ncnc(-c3cccnc3NC3CCCCC3)n2)cc(OC)c1OC`, the IC50 is greater than 4.5 µg/mL. Molecule `Nc1nc2ccccc2n1-c1ncnc(Nc2ccc(Cl)c(Cl)c2)n1` came in with an IC50 of 0.4 to 2.4 µg/mL (≈ 1.07 to 6.45 µM). The molecule `COc1cc(Nc2ncnc(-n3cccc3)n2)cc(OC)c1OC` displayed an IC50 greater than 4.5 µg/mL.

`COCCOc1ccc(Nc2ncnc(Nc3ccc4[nH]ccc4c3)n2)cc1OCCOC` came in with an IC50 of less than 0.4 µg/mL. The result for `COc1ccc(Nc2ncnc(NCc3cccc(Cl)c3)n2)cc1OC` reads 0.4 to 2.4 µg/mL (≈ 1.08 to 6.45 µM); that for `COc1cc(Nc2ncnc(-n3c(NCc4cccc(F)c4)nc4ccccc43)n2)cc(OC)c1OC`, 3.5 to 4.5 µg/mL (≈ 6.98 to 8.97 µM).

`CCN(CC)CCCCNc1cc(-c2ncnc(Nc3cc(OC)c(OC)c(OC)c3)n2)ccn1` had an IC50 greater than 4.5 µg/mL. The same measure for `COc1cc(Nc2ncnc(-n3c(NCCCCO)nc4ccccc43)n2)cc(OC)c1OC`: greater than 4.5 µg/mL. `NC(=O)Cc1cccc(Nc2ncnc(-n3c(N)nc4ccccc43)n2)c1` showed an IC50 greater than 4.5 µg/mL.

With `CC(C)(C)c1cc(Nc2ncnc(Cl)n2)[nH]n1`, the IC50 was greater than 4.5 µg/mL. In turn, `COc1cc(Nc2ncnc(N(CC(=O)OC(C)(C)C)c3ccc4c(c3)OCO4)n2)cc(OC)c1OC` had an IC50 of 2.4 to 3.5 µg/mL (≈ 4.69 to 6.84 µM). For `COC(=O)c1ccc(-c2cc(Nc3ncnc(NCCc4ccc(OC)cc4)n3)[nH]n2)cc1`, the IC50 is greater than 4.5 µg/mL. The result for `COc1ccc(CNc2nc3ccccc3n2-c2ncnc(Nc3cccc(Cc4nnn[nH]4)c3)n2)cc1` reads 0.4 to 2.4 µg/mL (≈ 0.791 to 4.75 µM); that for `Nc1nc2ccccc2n1-c1ncnc(Nc2ccccc2)n1`, greater than 4.5 µg/mL; that for `COc1cc(Nc2ncnc(N3CCCc4cc(C)ccc43)n2)cc(OC)c1OC`, less than 0.4 µg/mL. The result for `COc1cc(Nc2ncnc(Cc3ccc4c(cnn4Cc4ccccc4)c3)n2)cc(OC)c1OCCN1CCOCC1` reads less than 0.4 µg/mL. The result for `COc1cc(Nc2ncnc(-n3c(NCc4ccncc4)nc4ccccc43)n2)cc(OC)c1OC` reads greater than 4.5 µg/mL. In turn, `COc1cc(Nc2ncnc(-c3ccnc(Cl)c3)n2)cc(OC)c1OC` returned a half-inhibitory concentration (IC50) greater than 4.5 µg/mL.

In turn, `COc1cc(Nc2ncnc(Nc3cc(F)cc(C(F)(F)F)c3)n2)cc(OC)c1OC` registered an IC50 of less than 0.4 µg/mL.

The molecule `COC(=O)c1ccc(N(C)c2ncnc(Nc3ccc(OC)c(OC)c3)n2)cc1` yielded an IC50 greater than 4.5 µg/mL. The same measure for `c1coc(-c2cc(Nc3ncnc(Nc4nc[nH]n4)n3)n[nH]2)c1`: 0.4 to 2.4 µg/mL (≈ 1.29 to 7.73 µM); for `COC(=O)c1cccc(Nc2ncnc(-n3c(Cl)nc4ccccc43)n2)c1`: 2.4 to 3.5 µg/mL (≈ 6.3 to 9.19 µM); for `COc1ccc(Nc2ncnc(Nc3cc(Cl)cc(Cl)c3)n2)cc1OC`: 2.4 to 3.5 µg/mL (≈ 6.12 to 8.92 µM).

`COc1cc(Nc2ncnc(-n3c(N)nc4cc([N+](=O)[O-])ccc43)n2)cc(OC)c1OC.COc1cc(Nc2ncnc(-n3c(N)nc4ccc([N+](=O)[O-])cc43)n2)cc(OC)c1OC` came in with an IC50 greater than 4.5 µg/mL. Molecule `COc1ccc(Nc2ncnc(N(C)c3ccccc3)n2)cc1OC` showed an IC50 of less than 0.4 µg/mL.

Molecule `COc1cc(Nc2ncnc(-n3c(NCc4ccc(F)cc4)nc4ccccc43)n2)cc(OC)c1OC` yielded an IC50 greater than 4.5 µg/mL.

In turn, `c1ccc(CNc2ncccc2-c2ncnc(Nc3ccc(N4CCOCC4)cc3)n2)cc1` came in with an IC50 greater than 4.5 µg/mL. The molecule `COC(=O)c1cccc(Nc2ncnc(Nc3cc(-c4ccco4)n[nH]3)n2)c1` came in with an IC50 greater than 4.5 µg/mL. For the molecule `Cc1ccc(Nc2ncnc(-n3cccc3)n2)cc1Cl`, the IC50 was greater than 4.5 µg/mL. With `CCOC(=O)N1CCC(Nc2ncnc(N3CCCc4cc(C)ccc43)n2)CC1`, the IC50 was greater than 4.5 µg/mL. For the molecule `COc1cc(Nc2ncnc(-c3cccnc3Nc3cc(Cl)cc(Cl)c3)n2)cc(OC)c1OC`, the IC50 was greater than 4.5 µg/mL. As to `COc1ccc(CNc2nc3cc(OC)ccc3n2-c2ncnc(Nc3cc(OC)c(OC)c(OC)c3)n2)cc1.COc1ccc(CNc2nc3ccc(OC)cc3n2-c2ncnc(Nc3cc(OC)c(OC)c(OC)c3)n2)cc1`, the IC50 is greater than 4.5 µg/mL. The same measure for `COc1cc(Nc2ncnc(-c3cccnc3NC3CCN(Cc4ccccc4)CC3)n2)cc(OC)c1OC`: greater than 4.5 µg/mL; for `COc1cc(Nc2ncnc(Nc3cccc4ccccc34)n2)cc(OC)c1OCCN1CCOCC1`: less than 0.4 µg/mL; for `COc1ccc(CNc2nc3ccccc3n2-c2ncnc(Nc3cccc(C(=O)O)c3)n2)cc1`: greater than 4.5 µg/mL.

In turn, `COc1cc(Nc2ncnc(Nc3ccc(O)nc3)n2)cc(OC)c1OC` had an IC50 of 0.4 to 2.4 µg/mL (≈ 1.08 to 6.48 µM).

With `C=CCN(c1cccc(Cl)c1)c1ncnc(Nc2cc(OC)cc(OC)c2)n1`, the IC50 was less than 0.4 µg/mL. In the case of `Cc1cccc(Nc2ncnc(-n3cccc3)n2)c1C`, the IC50 is greater than 4.5 µg/mL. The result for `C=CCNc1ncccc1-c1ncnc(Nc2cc(OC)c(OC)c(OC)c2)n1` reads greater than 4.5 µg/mL; that for `COc1cc(Nc2ncnc(Nc3cc(-c4ccccc4)nn3C)n2)cc(OC)c1OC`, 3.5 to 4.5 µg/mL (≈ 8.07 to 10.4 µM); that for `COc1cc(Nc2ncnc(-n3c(NCc4ccc(Cl)cc4F)nc4ccccc43)n2)cc(OC)c1OC`, greater than 4.5 µg/mL. `COc1cc(Nc2ncnc(-n3c(NCc4ccc([N+](=O)[O-])cc4)nc4ccccc43)n2)cc(OC)c1OC` gave an IC50 greater than 4.5 µg/mL.

As to `CCOC(=O)C(Nc1nc2ccccc2n1-c1ncnc(Nc2cc(OC)c(OC)c(OC)c2)n1)c1ccccc1` (stereo not given), the IC50 was greater than 4.5 µg/mL. On to `OCc1ccc(Nc2ncnc(-c3ccccc3)n2)cc1`, for which the half-inhibitory concentration (IC50) is greater than 4.5 µg/mL. As for `COc1cc(Nc2ncnc(N(CC(=O)O)c3ccc4c(c3)OCO4)n2)cc(OC)c1OC`, the IC50 was in the range of 0.4 to 2.4 µg/mL (≈ 0.878 to 5.27 µM).

For the molecule `COc1cc(Nc2ncnc(Nc3[nH]ncc3-c3cccs3)n2)cc(OC)c1OC`, the IC50 is greater than 4.5 µg/mL. The result for `O=c1[nH]c2ccccc2n1-c1ncnc(Nc2cccc3ccccc23)n1` reads greater than 4.5 µg/mL; that for `FC(F)C(F)(F)Oc1cccc(Nc2ncnc(-c3ccnc(Cl)c3)n2)c1`, greater than 4.5 µg/mL; that for `COc1cc(Nc2ncnc(NC3CCc4ccccc43)n2)cc(OC)c1OC` (stereo not given), 0.4 to 2.4 µg/mL (≈ 1.02 to 6.1 µM). The result for `COC(=O)c1ccc(-c2cc(Nc3ncnc(NCCNC(C)=O)n3)[nH]n2)cc1` reads greater than 4.5 µg/mL; that for `COC(=O)Cc1cccc(Nc2ncnc(-n3c(NCc4ccccn4)nc4ccccc43)n2)c1`, greater than 4.5 µg/mL. `COc1ccc(Nc2ncnc(NCCCOC(C)C)n2)cc1OC`: the IC50 was greater than 4.5 µg/mL. Consider `COc1ccc(-c2ncnc(Nc3cc(OC)c(OC)c(OC)c3)n2)cc1OC`, for which the IC50 lay within 3.5 to 4.5 µg/mL (≈ 8.78 to 11.3 µM).

Molecule `CC(=O)Nc1ccc(Nc2ncnc(-n3c(N)nc4ccccc43)n2)cc1` came in with a concentration for half-maximal inhibition (IC50) greater than 4.5 µg/mL.

Regarding `CCc1ccc(Nc2nc3ccccc3n2-c2ncnc(Nc3cc(OC)c(OC)c(OC)c3)n2)cc1`, the IC50 is less than 0.4 µg/mL.

Take `CN(c1ccccc1)c1ncnc(-n2c(N)nc3ccccc32)n1`: the IC50 is 2.4 to 3.5 µg/mL (≈ 7.56 to 11 µM). Molecule `COc1cc(Nc2ncnc(Nc3ccc(C(C)=O)cc3)n2)cc(OC)c1OC` came in with an IC50 of 2.4 to 3.5 µg/mL (≈ 6.07 to 8.85 µM). For the molecule `CCN(CC)CCOc1ccc(Nc2ncnc(-n3c(N)nc4ccccc43)n2)cc1OC`, the IC50 is greater than 4.5 µg/mL. In turn, `COCCCNc1ncnc(N2CCCc3cc(C)ccc32)n1` showed an IC50 of 3.5 to 4.5 µg/mL (≈ 11.2 to 14.4 µM).

For `Cc1ccc2c(c1)CCCN2c1ncnc(NCCc2c[nH]c3ccccc23)n1`, the IC50 is greater than 4.5 µg/mL.

The molecule `COc1cc(Nc2ncnc(Nc3[nH]ncc3-c3ccccc3)n2)cc(OC)c1OC` had a concentration for half-maximal inhibition (IC50) greater than 4.5 µg/mL.
